Assay results taken from patent USRE46372E1, “Method for treating hearing loss” (The Regents of the University of Michigan, priority 2006, dated 2017).
“Also recorded” adds a separate entry of the source.

Columns and labels:
[1] = test system: guinea pigs; assay: Missing hair cells (hair cell counts, cytocochleograms) after noise exposure in guinea pigs; details: after 120 dB SPL noise for 5 h, in words
Method: After ABR testing, the guinea pigs are deeply anesthetized and decapitated. Temporal bones are quickly removed, dissected open and fixed with 4% paraformaldehyde. The following day, an otic capsule, lateral wall, and tectorial membrane are removed, and a bony modiolus is carefully detached. Organ of Corti tissue, attached to the modiolus, is permeabilized with 0.3% Triton-X and incubated with rhodamine phalloidin diluted 1:100 in phosphate buffered saline (30 min). After washing the tissues, individual turns from the organ of Corti are dissected, mounted on microscope slides, and examined and photographed using a Leica DMRB epiflourescence microscope. Hair cell counts are conducted, and cytocochleograms are prepared as known in the art.
Guinea pigs are treated with other compositions in order to compare the efficacy of the composition of the present disclosure with the other compositions. […] The guinea pigs are subjected to the same ABR testing, and the components of the ear are dissected, as described above in the Example to provide information on threshold shift and hair cell loss.
Eight groups of guinea pigs (where the number of guinea pigs ranges from 5 guinea pigs to 10 guinea pigs per group) are respectively treated with other compositions to compare the efficacy of the “ACEMg” composition of the present disclosure with the other compositions. […] The eight groups of guinea pigs are exposed to the same ABR testing, and the components of the ear are dissected as previously described in the Example to provide information on threshold shift and outer hair cell loss.

[2] = test system: guinea pigs; assay: Noise-induced hearing loss in guinea pigs, ABR threshold shift; format: in vivo, guinea pig; details: for threshold shift, as averaged across all frequencies: ABR at 4, 8, 16 kHz, 10 days after 120 dB SPL Octave Band Noise centered at 4 kHz for 5 h, saline control about 45; for permanent hearing loss 10 days post noise (FIG. 1), protection in words: Trolox 100 mg/kg once daily or 50 mg/kg twice daily, betahistine 30 mg/kg once daily or 18 mg/kg, versus saline control
[3] = test system: guinea pigs; assay: Gentamicin-induced hair cell loss in guinea pigs (quantitative sensory hair cell assessment); format: in vivo, guinea pig
Method: In addition, outer hair cell loss and inner hair cell loss is measured both in the whole cochlea and in a trauma region of the cochlea. After treatment according to the method of the present disclosure, outer hair cell loss in the whole cochlea is less than 10%, and inner hair cell loss in the whole cochlea is less than 5%. Outer cell hair loss in the trauma region is less than 20%, while inner hair cell loss in the trauma region is less than 10%. […] To obtain those results, the composition is orally administered to guinea pigs for 10 to 16 days prior to first administration of the antibiotic, and the composition and antibiotic are administered again each day for forty days. The guinea pigs are then euthanized and the hair cells counted. Conversely, when the antibiotic is administered for forty days without administering the composition described herein in conjunction with the antibiotic, outer hair cell loss approaches 80%, while inner hair cell loss is about 8%.
The method of treating side effects of antibiotic treatment with the composition of the present disclosure is again performed on guinea pigs (normal hearing, male, pigmented). Six guinea pigs are subject to antibiotic administration and treatment with the composition of the present disclosure. The guinea pigs were fed with a chow containing the composition including beta-carotene, vitamin C, vitamin E, and magnesium in the amounts shown in Table 3 for 10 days prior to administration of a first dosage of gentamicin antibiotic, and were fed the same chow every day for 41 days. […] Fourteen days following cessation of antibiotic treatment, the guinea pigs were euthanized, left cochleae harvested, and quantitative sensory hair cell assessments were performed. […]
Six guinea pigs are subject to antibiotic administration in the absence of treatment with the composition of the present disclosure. […] Fourteen days following cessation of antibiotic treatment, the guinea pigs were euthanized, left cochleae harvested, and quantitative sensory hair cell assessments were performed.

[4] = in words; cited from earlier work
[5] = in words; cited from earlier work; remark: listed apart in the source
[6] = antibiotic administered without the composition

Row | Compound | sensory cell death by hair cell counts, whole cochlea and trauma region, compared to the saline control [1] | threshold shift, as averaged across all frequencies [2] | permanent hearing loss 10 days post noise (FIG. 1), protection in words [2] | further results
1 | O=S(=O)([O-])[O-].[Mg+2] [magnesium, magnesium sulfate] | reduced sensory cell death | about 41 decibels |  | sensory cell death by hair cell counts, whole cochlea and trauma region, compared to the saline control ([1]; listed as Mg): significantly reduced sensory cell death
2 | CNCCc1ccccn1 [betahistine] |  |  | approximately the same amount of protection as those treated with vitamin E; also recorded: does not exhibit an additive effect | 
3 | gentamicin |  |  |  | inner hair cell loss [3, 6]: about 8%; outer hair cell loss [3, 6]: ~80%; ototoxic effect on hair cells ([3]; gentamicin 140 mg/kg s.c. once a day for 16 days, no composition, in words): dramatic cell death of outer hair cells
4 | Oc1ncnc2[nH]ncc12 [allopurinol] |  |  |  | reducing noise-induced hearing loss [4]: effective; reducing gentamicin-induced ototoxicity [5]: ineffective
5 | CN(CC(=O)O)C(=N)N [creatine] | reduced sensory cell death | about 34 decibels |  | 
6 | Cc1c(C)c2c(c(C)c1O)CCC(C)(C(=O)O)O2 (stereo not drawn) |  |  | less permanent hearing loss than control animals | 
